Here are results for 1 compound from US20250134889A1, “TARGETING IRE1 KINASE AND FMRP FOR PROPHYLAXIS, MANAGEMENT AND TREATMENT OF ATHEROSCLEROSIS” (CEDARS-SINAI MEDICAL CENTER, priority 2022, published 2025).

Holding throughout (assay type): cell-based, mouse
Experiment [1] concerns BMDM. As to the kind of experiment: In vitro efferocytosis. The text has this:
FIGS. 3A-3G depict that FMRP-deficiency increases efferocytosis in vivo. (For all images scale bar=50 μm; Red: Macrophages, Green: AC/AC-1, Violet: AC-2. Data are mean±SEM. Unpaired t-test with Welch's correction. * P≤0.05, ** P≤0.01, *** P≤0.001.) • 3A-3E. In vitro and in vivo efferocytosis experiments, where percentage of macrophages F4/80^+ (red) that ingested apoptotic cells (AC) labeled with carboxyfluorescein succinimidyl ester (CFSE)^+ (green) were reported as % efferocytosis. • 3A. BMDMs were transfected with Fmr1- or control-siRNA and incubated CFSE-labeled AC for the indicated hours (n=4). • 3B. Fmr1^+/+ and Fmr1^−/− BMDMs were treated with PA (500 μM) for 6 hours and then incubated with CFSE-labeled ACs for 4 hours (n=4). • 3C. Fmr1^+/+ and Fmr1^−/− mice were fed WD (16 weeks) and injected intraperitoneally with CFSE-labeled AC (1.5 hours), followed by PM elicitation (n=4-5). • 3D. BMDM were pre-treated either with vehicle (DMSO) or AMG-18 (5 μM) for 1 hour then incubated with CFSE-labeled ACs for 4 hours (n=4). • 3E. […] In vitro continuous efferocytosis experiments, where macrophages were stained for F4/80^+ (red), AC were labeled with CFSE (AC-1; green) or Violet (AC2; violet). % continuous efferocytosis was determined by the ratio of F4/80^+, CFSE^+ and Violet^+ (triple positive) cells to total F4/80^+/+ and CFSE^+ (double positive) cells. • 3F. […]

For the next experiment, the system named is macrophages. As to the kind of experiment: Cholesterol uptake in macrophages (fluorescently labeled cholesterol). The following applies: AMG-18 10 μM 1 hour pre-treatment, labeled cholesterol 4 hours.
For experiment [2], the system named is BMDM. Briefly: Cholesterol efflux assay. The note with it: AMG-18 5 μM 1 hour pre-treatment; APOA1 25 μg/ml or HDL 50 μg/ml acceptors, 6 hours. Here is the method: FIGS. 2A-2M depict that FMRP deficiency enhances RCT while reducing foam cell formation in vivo. (Data are mean±SEM. Unpaired t-test with Welch's correction. * P≤0.05, ** P≤0.01, *** P≤0.001.) • 2A. Fmr1^+/+ and Fmr1^−/− mice were injected with AAV_PCSK9 and fed with 16 weeks of WD. Residential PM were stained with Oil Red O (ORO) and imaged (n=7; Scale bar=50 μm). • 2B. Apoe-/mice were fed with WD (12 weeks) and injected with vehicle (DMSO) or AMG-18 (30 mg/kg/day) in the last 4 weeks of WD. Residential PM were stained with ORO and imaged (n=5; Scale bar=50 μm). • 2C-2E. […] Macrophages were pre-loaded with fluorescently labeled cholesterol (16 hours) followed by incubation in efflux medium including APOA1 (25 μg/ml) or HDL (50 μg/ml) as acceptors for 6 hours. % Efflux was calculated as cholesterol signal in medium/cholesterol signal in medium and cell: Cholesterol efflux in (2F) Fmr1+/+ and Fmr1^−/− BMDM (n=4) and in (2G) BMDM that were pre-treated either with DMSO or AMG-18 (5 μM; 1 hour) (n=4). • 2H-2K. […] Protein lysates from macrophages used in FIG. 2C were analyzed by western blotting using specific antibodies for FMRP and β-Actin. • 2M. […]

SMILES strings stand for the structures.

As for `Cc1ccc2c(NS(=O)(=O)c3ccccc3Cl)cccc2c1Oc1ncccc1-c1ccnc(N[C@H]2CCCNC2)n1` [AMG-18], the “continued efferocytosis of ACs” value in the experiment on BMDM [1] (AMG-18 5 μM 1 hour, AC-1 2 hours then AC-2 2 hours) is “enhanced”. Besides, in the experiment on BMDM [1] (CFSE-labeled ACs, AMG-18 5 μM 1 hour then ACs 4 hours, siRNA transfected BMDM), the “efferocytosis of ACs” value is on record as “increased”. Also, the cholesterol uptake result in the experiment with macrophages is listed as “neither FMRP knock down nor IRE1 kinase inhibition altered”. In the experiment on BMDM [2], the cholesterol efflux entry is reported as “enhanced”.
